Source: US8993717B2, “Gadd45beta targeting agents” (Imperial Innovations Limited, priority 2009, dated 2015)
Where two headings read alike, the source gives them in different places. Square brackets hold non-standard residues; d marks the D form. Peptide text beside a SMILES is read from it. * marks the point of attachment. NHPhenethyl = c1ccc(CCN*)cc1; Cbz = O=C(OCc1ccccc1)*; NHBn = c1ccc(CN*)cc1; Bz = O=C(c1ccccc1)*; NHPh = c1ccc(N*)cc1

Experiments:
[1] = tested on: KMS12 multiple myeloma cells; test: [3H]thymidine incorporation assay in KMS12; format: cell-based, human
Description: In these latter assays, the effects of Z-DTPs, Ac-DTPs and Z-LTPs on the survival/proliferation of tumour cell lines was investigated by measuring DNA synthesis using standard tritiated thymidine ([^3H]thymidine; [^3H]-TdR) uptake assays. In the analyses shown, cells were incubated for 24, 72, 120 or 144 hrs at 37° C. in the presence or absence of control or bioactive tetrapeptides, as indicated, then subjected to an additional incubation for 18 hrs with [^3H]-TdR (0.037 MBq/well, equivalent to 0.5 μCi/well). Cells were subsequently harvested onto glass fibre filter mats using a 96-well plate automated cell harvester, after which scintillation fluid was added, and [^3H]thymidine incorporation measured by liquid scintillation spectroscopy on a beta counter. The results are expressed as the percentages of the counts per minute (c.p.m.) (directly correlating with the extent of cell proliferation) measured with tetrapeptide-treated cultures relative to the c.p.m. measured with the corresponding cultures incubated with medium alone (untreated cells). All experiments were performed in triplicate.

[2] = tested on: KMS11 multiple myeloma cells; test: [3H]thymidine incorporation assay in KMS11; format: cell-based, human
Description: Cultures of multiple myeloma cells and treatments with Z-DTPs were carried out as described in Example 8 (see below). The effects of Z-DTPs on the survival/proliferation of multiple myeloma cells were evaluated by the use of [^3H]thymidine) incorporation assays, performed as also described in Example 8. The amount of cell proliferation measured with each of the Z-DTPs' concentrations used and with the untreated cultures (i.e. cultures incubated with medium alone), was expressed as counts per minute (c.p.m.)—which directly correlate with the extent of cell proliferation. All experiments were performed in triplicate.
In these latter assays, the effects of Z-DTPs, Ac-DTPs and Z-LTPs on the survival/proliferation of tumour cell lines was investigated by measuring DNA synthesis using standard tritiated thymidine ([^3H]thymidine; [^3H]-TdR) uptake assays. In the analyses shown, cells were incubated for 24, 72, 120 or 144 hrs at 37° C. in the presence or absence of control or bioactive tetrapeptides, as indicated, then subjected to an additional incubation for 18 hrs with [^3H]-TdR (0.037 MBq/well, equivalent to […]). Cells were subsequently harvested onto glass fibre filter mats using a 96-well plate automated cell harvester, after which scintillation fluid was added, and [^3H]thymidine incorporation measured by liquid scintillation spectroscopy on a beta counter. The results are expressed as the percentages of the counts per minute (c.p.m.) (directly correlating with the extent of cell proliferation) measured with tetrapeptide-treated cultures relative to the c.p.m. measured with the corresponding cultures incubated with medium alone (untreated cells). All experiments were performed in triplicate.

Gadd45β/MKK7 interaction = biological target: T1, Gadd45β/MKK7 interaction (Homo sapiens, UniProt O14733); test: ELISA competition assay of biotin-hGadd45β binding to coated GST-MKK7; settings: Table V, read-out: IC50 ELISA
T1 construct: The GST-fused full-length kinase was coated for 16 h at 4° C., at a concentration of 42 nM; made in house
T1 sequence (O14733 1-419): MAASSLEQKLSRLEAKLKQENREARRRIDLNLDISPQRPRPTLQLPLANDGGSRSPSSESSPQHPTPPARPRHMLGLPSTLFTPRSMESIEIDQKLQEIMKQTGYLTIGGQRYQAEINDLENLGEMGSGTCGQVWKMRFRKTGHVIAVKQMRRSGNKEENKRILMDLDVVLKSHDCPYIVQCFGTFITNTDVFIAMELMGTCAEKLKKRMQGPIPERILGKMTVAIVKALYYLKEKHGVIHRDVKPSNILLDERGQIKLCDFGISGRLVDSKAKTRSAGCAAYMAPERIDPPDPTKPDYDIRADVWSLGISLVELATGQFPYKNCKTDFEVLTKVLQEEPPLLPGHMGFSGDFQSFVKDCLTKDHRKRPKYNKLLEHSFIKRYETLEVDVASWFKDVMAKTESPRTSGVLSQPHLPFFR
Description: To evaluate the inhibitory properties of peptides, ELISA-based assays were performed. In these assays, a fusion protein of glutathione S-transferase (GST) and mitogen-activated protein kinase kinase 7 (MKK7) was coated onto wells of a 96-well plate, while biotinylated-hGadd45β was used in solution. hGadd45β was biotinylated using an EZ Link NHS-LC-biotin kit (Pierce, Rockford, Ill.), according to Tornatore et al. (Tornatore L., et al. (2008). J Mol Biol; 378:97-111).
Firstly, the association between Gadd45β and MKK7 was investigated by ELISA assays as also reported in Tornatore et al. (Tornatore L., et al. (2008). J Mol Biol; 378:97-111). The GST-fused full-length kinase was coated for 16 h at 4° C., at a concentration of 42 nM in buffer A (25 mM Tris pH 7.5, 150 mM NaCl, 1 mM DTT and 1 mM EDTA) into wells of a 96-well microliter plate. Some wells were filled with buffer alone and were used as blanks. After incubation for 16 h at 4° C., the solutions were removed and the wells were filled with 350 μL of a 1% (w/v) solution of NFDM (Non Fat Dry Milk) in PBS (phosphate buffered saline). The plate was incubated for 1 h at 37° C. in the dark. After washing with buffer T-PBS (PBS with 0.004% (v/v) Tween detergent), the wells were filled with 100 μL of biotinylated-hGadd45β at concentrations ranging from 8.4 nM to 168 nM. Each data point was performed in triplicate. Following incubation for 1 hr in the dark at 37° C. the solutions were removed and the wells were again washed with T-PBS. Then 100 μL of a 1:10,000 dilution of horseradish peroxidase-conjugated streptavidin dissolved in buffer was added to each well and the plate incubated for 1 hr at 37° C. in the dark. After removal of the enzyme solution and washing, 100 μL of the chromogenic substrate o-phenylendiamine (0.4 mg/mL in 50 mM sodium phosphate-citrate buffer, containing 0.4 mg/mL of urea in hydrogen peroxide) was added and the colour was allowed to develop in the dark for 5 min. The reaction was stopped by adding 50 μL of 2.5 M H2SO4. The absorbance at 490 nm was measured in all wells and the values were averaged after subtracting the corresponding blanks. Bound protein was then detected as described above. The molar concentration of biotinylated-hGadd45β at which the half-maximal ELISA signal is detected corresponds to the dissociation constant (KD) (Friguet B, Chaffotte A F, Djavadi-Ohaniance L, Goldberg M E. J Immunol Methods. 1985 Mar. 18; 77 (2):305-19). Binding competition assays were performed by coating GST-MKK7 at 42 nM as described, a concentration of biotinylated-hGadd45β of 21 nM (pre-saturation conditions 1:0.5 mol/mol ratio) and, in a first test, using competitors at 21 nM. The binding of biotinylated hGadd45β to GST-MKK7 was analyzed in the presence of increasing amounts of competitor peptide (concentrations ranging from 0.01 nM to 100 nM), and the values obtained with the competitor were expressed as the percentage of the binding detected in the absence of competitor. […] According to the convention adopted in the table “L-Xaa” and “D-Xaa” refer to the L and D forms of amino acid Xaa.
A simplified combinatorial peptide library (Marasco et al. 2008, Curr. Protein Pept. Sci. 9:447-67) was screened for antagonists of the Gadd45β/MKK7 interaction. This library contained a total of 12^4=20,736 different tetrapeptides formed by combinations of the following amino acid residues Gln (Q), Ser (S), Arg (R), Ala (A), Tyr (Y), Pro (P), Met (M), Cys (C), Phe (F), Leu (L), His (H), Asp (D), and was iteratively deconvoluted in four steps by ELISA competition assays using at each step coated MKK7 (42 nM), soluble-biotin-hGadd45β (21 nM) and each of the 12 sub-libraries (42 nM).

[3] = Day 3, read-out: IC50 [H^3] thymidine incorporation assay in KMS11
[4] = Day 6, read-out: IC50 [H^3] thymidine incorporation assay in KMS11
[5] = Day 1, read-out: IC50 [H^3] thymidine incorporation assay in KMS11

Compound	IC50 [2, 3]	IC50 [2, 4]	IC50 [2, 5]	IC50 [2]	also measured
O=C(O)C[C@@H](NC(=O)c1ccccc1)C(=O)N[C@H](Cc1c[nH]cn1)C(=O)Nc1ccccc1 [Compound 2, X1-Asp-His-Y1] (Bz-[dD]-[dH]-NHPh)	–	–	–	> 10 µM	IC50 [1]: > 10 µM; IC50 (Gadd45β/MKK7 interaction; FIG. 3C): > 0.001 µM
O=C(O)C[C@@H](NC(=O)c1ccccc1)C(=O)N[C@H](Cc1c[nH]cn1)C(=O)NCc1ccccc1 [Compound 3, X1-Asp-His-Y2] (Bz-[dD]-[dH]-NHBn)	–	–	–	> 10 µM	IC50 [1]: > 10 µM; IC50 (Gadd45β/MKK7 interaction; FIG. 3C): > 0.001 µM
O=C(O)C[C@@H](NC(=O)c1ccccc1)C(=O)N[C@H](Cc1c[nH]cn1)C(=O)NCCc1ccccc1 [Compound 4, X1-Asp-His-Y3] (Bz-[dD]-[dH]-NHPhenethyl)	–	–	–	> 10 µM	IC50 [1]: > 10 µM; IC50 (Gadd45β/MKK7 interaction; peptides 0.01-10 nM): 0.0005 µM
O=C(O)C[C@@H](NC(=O)c1ccc(O)cc1)C(=O)N[C@H](Cc1c[nH]cn1)C(=O)Nc1ccccc1 [Compound 5, X2-Asp-His-Y1]	–	–	–	> 10 µM	IC50 [1]: > 10 µM
O=C(O)C[C@@H](NC(=O)c1ccc(O)cc1)C(=O)N[C@H](Cc1c[nH]cn1)C(=O)NCc1ccccc1 [Compound 6, X2-Asp-His-Y2]	–	–	–	> 10 µM	IC50 [1]: > 10 µM
N=C(N)NCCC[C@@H](NC(=O)[C@@H](CCC(=O)O)NC(=O)c1ccccc1)C(=O)Nc1ccccc1 [Compound 10, X1-Glu-Arg-Y1] (Bz-[dE]-[dR]-NHPh)	–	–	–	> 10 µM	–
N=C(N)NCCC[C@@H](NC(=O)[C@@H](CCC(=O)O)NC(=O)c1ccccc1)C(=O)NCc1ccccc1 [Compound 11, X1-Glu-Arg-Y2] (Bz-[dE]-[dR]-NHBn)	–	–	–	> 10 µM	–
N=C(N)NCCC[C@@H](NC(=O)[C@@H](CCC(=O)O)NC(=O)c1ccccc1)C(=O)NCCc1ccccc1 [Compound 12, X1-Glu-Arg-Y3] (Bz-[dE]-[dR]-NHPhenethyl)	–	–	–	> 10 µM	–
N=C(N)NCCC[C@@H](NC(=O)[C@@H](CCC(=O)O)NC(=O)c1ccc(O)cc1)C(=O)Nc1ccccc1 [Compound 13, X2-Glu-Arg-Y1]	–	–	–	> 10 µM	–
N=C(N)NCCC[C@@H](NC(=O)[C@@H](CCC(=O)O)NC(=O)c1ccc(O)cc1)C(=O)NCc1ccccc1 [Compound 14, X2-Glu-Arg-Y2]	–	–	–	> 10 µM	–

Continued, in another order:

IC50 [2, 3]	IC50 [2, 4]	IC50 [2, 5]	Compound	IC50 [2]	also measured
> 10 µM	> 10 µM	–	NC(=O)[C@@H](Cc1ccccc1)NC(=O)[C@@H](CC(=O)O)NC(=O)[C@@H](Cc1ccc(O)cc1)NC(=O)OCc1ccccc1 [Compound 8, Z-Tyr-Asp-Phe-NH2] (Cbz-[dY]-[dD]-[dF]-NH2)	–	IC50 (Gadd45β/MKK7 interaction; peptides 0.01-10 nM): 0.000162 µM
> 10 µM	> 10 µM	> 10 µM	N=C(N)NCCC[C@@H](NC(=O)[C@@H](CC(N)=O)NC(=O)[C@@H](Cc1ccc(O)cc1)NC(=O)OCc1ccccc1)C(=O)N[C@H](Cc1ccccc1)C(N)=O [Z-Tyr-Asn-Arg-Phe-NH2] (Cbz-[dY][dN][dR][dF]-NH2)	–	–
> 10 µM	> 10 µM	> 10 µM	NC(=O)C[C@@H](NC(=O)[C@@H](Cc1ccc(O)cc1)NC(=O)OCc1ccccc1)C(=O)N[C@H](Cc1ccccc1)C(N)=O [Z-Tyr-Asn-Phe-NH2] (Cbz-[dY]-[dN]-[dF]-NH2)	–	–
> 10 µM	> 10 µM	> 10 µM	N=C(N)NCCC[C@@H](NC(=O)[C@@H](CCC(N)=O)NC(=O)[C@@H](Cc1ccc(O)cc1)NC(=O)OCc1ccccc1)C(=O)N[C@H](Cc1ccccc1)C(N)=O [Z-Tyr-Gln-Arg-Phe-NH2] (Cbz-[dY][dQ][dR][dF]-NH2)	–	–
> 10 µM	> 10 µM	> 10 µM	NC(=O)CC[C@@H](NC(=O)[C@@H](Cc1ccc(O)cc1)NC(=O)OCc1ccccc1)C(=O)N[C@H](Cc1ccccc1)C(N)=O [Z-Tyr-Gln-Phe-NH2] (Cbz-[dY]-[dQ]-[dF]-NH2)	–	–
> 10 µM	> 10 µM	> 10 µM	CC(C)C[C@@H](NC(=O)[C@@H](Cc1ccc(O)cc1)NC(=O)OCc1ccccc1)C(=O)N[C@H](CCCNC(=N)N)C(=O)N[C@H](Cc1ccccc1)C(N)=O [Z-Tyr-Leu-Arg-Phe-NH2] (Cbz-[dY][dL][dR][dF]-NH2)	–	–
> 10 µM	> 10 µM	> 10 µM	CC(C)C[C@@H](NC(=O)[C@@H](Cc1ccc(O)cc1)NC(=O)OCc1ccccc1)C(=O)N[C@H](Cc1ccccc1)C(N)=O [Z-Tyr-Leu-Phe-NH2] (Cbz-[dY]-[dL]-[dF]-NH2)	–	–
> 10 µM	> 10 µM	> 10 µM	CSCC[C@@H](NC(=O)[C@@H](Cc1ccc(O)cc1)NC(=O)OCc1ccccc1)C(=O)N[C@H](CCCNC(=N)N)C(=O)N[C@H](Cc1ccccc1)C(N)=O [Z-Tyr-Met-Arg-Phe-NH2] (Cbz-[dY][dM][dR][dF]-NH2)	–	–
> 10 µM	> 10 µM	> 10 µM	CSCC[C@@H](NC(=O)[C@@H](Cc1ccc(O)cc1)NC(=O)OCc1ccccc1)C(=O)N[C@H](Cc1ccccc1)C(N)=O [Z-Tyr-Met-Phe-NH2] (Cbz-[dY]-[dM]-[dF]-NH2)	–	–
